# PubChem BioAssay AID330 (DTP/NCI, 2004)
# Values joined by “and” are separate entries in the source; they are usually repeats but may differ in a detail not shown here. Identical values can stand only once. Inconclusive results and toxic doses are left out.
# System: P388 leukemia ip, CD2F1 mice, survival T/C
# Assay: NCI In Vivo Anticancer Drug Screen. Data for tumor model P388 Leukemia (intraperitoneal) in CD2F1 (CDF1) mice
# Details: endpoint: median survival time, higher = longer survival
# How it was run: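 Mice carrying the transplanted tumor received test compound or vehicle. Survival was recorded in each group, and the value is the treated-group measurement divided by that of the vehicle-treated control group.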
# [1] = dose: 60.0 mg/kg/injection, schedule: Q01DX005 (ip), vehicle: saline with Tween-80
# [2] = dose: 120.0 mg/kg/injection, schedule: Q01DX005 (ip), vehicle: saline with Tween-80
# [3] = dose: 240.0 mg/kg/injection, schedule: Q01DX005 (ip), vehicle: saline with Tween-80
# [4] = dose: 25.0 mg/kg/injection, schedule: Q01DX005 (ip), vehicle: Klucel (hydroxypropylcellulose) (HPC)
# [5] = dose: 50.0 mg/kg/injection, schedule: Q01DX005 (ip), vehicle: Klucel (hydroxypropylcellulose) (HPC)
# [6] = dose: 50.0 mg/kg/injection, schedule: Q01DX009 (ip), vehicle: saline
# [7] = dose: 100.0 mg/kg/injection, schedule: Q01DX009 (ip), vehicle: saline
# [8] = dose: 200.0 mg/kg/injection, schedule: Q01DX009 (ip), vehicle: saline
# [9] = dose: 100.0 mg/kg/injection, schedule: Q01DX005 (ip), vehicle: Klucel (hydroxypropylcellulose) (HPC)
# [10] = dose: 200.0 mg/kg/injection, schedule: Q01DX005 (ip), vehicle: Klucel (hydroxypropylcellulose) (HPC)
compound,measurement,setting,value
CCOC(=O)C1=C(O)c2ccccc2S(=O)(=O)N1C (tested in a mixture with another compound),T/C,[1],98 % of control
same,T/C,[2],107 % of control
same,T/C,[3],97 % of control
Cc1ccc(C2=CSC3=NCCN23)cc1Cl,T/C,"dose: 12.5 mg/kg/injection, schedule: Q01DX005 (ip), vehicle: Klucel (hydroxypropylcellulose) (HPC)",99 % of control
same,T/C,[4],101 % of control
same,T/C,[5],107 % of control
CC1(C)COC(=O)C(C(=O)O)=C1C(=O)O,T/C,"dose: 50.0 mg/kg/injection, schedule: Q01DX009 (ip), vehicle: saline with Tween-80",90 % of control
same,T/C,"dose: 100.0 mg/kg/injection, schedule: Q01DX009 (ip), vehicle: saline with Tween-80",87 % of control
same,T/C,"dose: 200.0 mg/kg/injection, schedule: Q01DX009 (ip), vehicle: saline with Tween-80",90 % of control
c1cc2ccc3ccc[n+]4c3c2[n+](c1)CC4,T/C,[6],103 % of control
NCC(O)c1cccc(C(F)(F)F)c1 (configuration not stated),T/C,[6],92 % of control
same,T/C,[7],100 % of control
O=[N+]([O-])c1ccc(COc2ccccc2)cc1,T/C,"dose: 100.0 mg/kg/injection, schedule: Q01DX001 (ip), vehicle: saline",104 % of control
same,T/C,"dose: 200.0 mg/kg/injection, schedule: Q01DX001 (ip), vehicle: saline",113 % of control
same,T/C,"dose: 400.0 mg/kg/injection, schedule: Q01DX001 (ip), vehicle: saline",124 % of control
CC(N)P(=O)(O)O (configuration not stated),T/C,"dose: 25.0 mg/kg/injection, schedule: Q01DX009 (ip), vehicle: saline",100 % of control
same,T/C,[6],115 % of control
same,T/C,[7],104 % of control and 87 % of control
same,T/C,[8],106 % of control and 86 % of control
Clc1ccc2c(c1)nc(-c1ccccn1)n2CCc1ccccn1,T/C,[4],99 % of control
same,T/C,[5],104 % of control
same,T/C,[9],101 % of control
same,T/C,[10],93 % of control
Cc1ccc(NCCNCCO)c2c(=O)c3ccccc3sc12,T/C,"dose: 3.75 mg/kg/injection, schedule: Q01DX009 (ip), vehicle: water",100 % of control
same,T/C,"dose: 7.5 mg/kg/injection, schedule: Q01DX009 (ip), vehicle: distilled water + Tween-80",113 % of control
same,T/C,"dose: 7.5 mg/kg/injection, schedule: Q01DX009 (ip), vehicle: water",99 % of control
same,T/C,"dose: 12.5 mg/kg/injection, schedule: Q01DX005 (ip), vehicle: other",113 % of control
same,T/C,"dose: 15.0 mg/kg/injection, schedule: Q01DX009 (ip), vehicle: distilled water + Tween-80",120 % of control
same,T/C,"dose: 15.0 mg/kg/injection, schedule: Q01DX009 (ip), vehicle: water",123 % of control
same,T/C,"dose: 25.0 mg/kg/injection, schedule: Q01DX005 (ip), vehicle: other",120 % of control
same,T/C,[5],119 % of control
same,T/C,[9],158 % of control
same,T/C,[10],155 % of control
O=C1Cn2c(c3c(nc2=O)CCCC3)N1,T/C,[1],100 % of control
same,T/C,[2],99 % of control
same,T/C,[3],100 % of control
C=CC1(C)N=C1N(C)C (configuration not stated),T/C,[6],105 % of control
same,T/C,[7],97 % of control
same,T/C,[8],96 % of control
C=C(C(=O)O)C(N)C(=O)O (configuration not stated),T/C,"dose: 25.0 mg/kg/injection, schedule: Q01DX005 (ip), vehicle: saline",98 % of control
same,T/C,"dose: 50.0 mg/kg/injection, schedule: Q01DX005 (ip), vehicle: saline",98 % of control
same,T/C,"dose: 100.0 mg/kg/injection, schedule: Q01DX005 (ip), vehicle: saline",112 % of control
same,T/C,"dose: 200.0 mg/kg/injection, schedule: Q01DX005 (ip), vehicle: saline",97 % of control
same,T/C,"dose: 400.0 mg/kg/injection, schedule: Q01DX005 (ip), vehicle: saline",96 % of control
COCC1(C)CCCC2(C)C3=C(CCC(O)C3)CCC12 (configuration not stated),T/C,"dose: 100.0 mg/kg/injection, schedule: Q04DX003 (ip), vehicle: saline",99 % of control
same,T/C,"dose: 200.0 mg/kg/injection, schedule: Q04DX003 (ip), vehicle: saline",99 % of control
same,T/C,"dose: 400.0 mg/kg/injection, schedule: Q04DX003 (ip), vehicle: saline",97 % of control
